# According to ChEMBL document CHEMBL5715260, “Selectivity Literature for EUbOPEN Chemogenomic Library” (2024):
# Legend:
# [1] = target: T1, Alpha trans-inducing protein (Human alphaherpesvirus 1) (UniProt A0A5J6DW59); assay: Selectivity interaction (Reporter gene assay) EUB0001147a UL48; design: recommended concentration 1 uM
# [2] = target: T2, Retinoic acid receptor RXR-alpha (Homo sapiens) (UniProt P19793); assay: Selectivity interaction (Reporter gene assay) EUB0001147a RXRA; design: recommended concentration 1 uM; conditions: reference bexarotene 1 uM, Selectivity number of off-targets 0.0, Selectivity number of targets 1.0, Source Knowledge inhouse
# T2 sequence (whole entry): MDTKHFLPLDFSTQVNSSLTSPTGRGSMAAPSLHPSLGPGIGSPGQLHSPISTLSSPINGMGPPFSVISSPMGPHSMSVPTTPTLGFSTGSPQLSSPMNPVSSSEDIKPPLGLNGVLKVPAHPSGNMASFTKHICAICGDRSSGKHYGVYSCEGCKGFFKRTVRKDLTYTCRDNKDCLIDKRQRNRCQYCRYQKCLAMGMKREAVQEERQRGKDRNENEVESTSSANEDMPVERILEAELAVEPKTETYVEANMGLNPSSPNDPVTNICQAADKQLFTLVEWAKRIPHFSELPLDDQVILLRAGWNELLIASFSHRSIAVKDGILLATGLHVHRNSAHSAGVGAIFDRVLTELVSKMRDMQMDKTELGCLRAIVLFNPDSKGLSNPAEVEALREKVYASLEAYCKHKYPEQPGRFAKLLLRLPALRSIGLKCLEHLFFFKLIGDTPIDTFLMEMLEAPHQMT
# [3] = target: Steroidogenic factor 1 (Homo sapiens) (UniProt Q13285); assay: Selectivity interaction (Reporter gene assay) EUB0001147a NR5A1; design: recommended concentration 1 uM
# [4] = target: Nuclear receptor subfamily 4immunitygroup A member 1 (Homo sapiens) (UniProt P22736); assay: Selectivity interaction (Reporter gene assay) EUB0001147a NR4A1; design: recommended concentration 1 uM
# [5] = target: T3, Nuclear receptor subfamily 2 group C member 1 (Homo sapiens) (UniProt P13056); assay: Selectivity interaction (Reporter gene assay) EUB0001147a NR2C1; design: recommended concentration 1 uM
# T3 sequence (whole entry): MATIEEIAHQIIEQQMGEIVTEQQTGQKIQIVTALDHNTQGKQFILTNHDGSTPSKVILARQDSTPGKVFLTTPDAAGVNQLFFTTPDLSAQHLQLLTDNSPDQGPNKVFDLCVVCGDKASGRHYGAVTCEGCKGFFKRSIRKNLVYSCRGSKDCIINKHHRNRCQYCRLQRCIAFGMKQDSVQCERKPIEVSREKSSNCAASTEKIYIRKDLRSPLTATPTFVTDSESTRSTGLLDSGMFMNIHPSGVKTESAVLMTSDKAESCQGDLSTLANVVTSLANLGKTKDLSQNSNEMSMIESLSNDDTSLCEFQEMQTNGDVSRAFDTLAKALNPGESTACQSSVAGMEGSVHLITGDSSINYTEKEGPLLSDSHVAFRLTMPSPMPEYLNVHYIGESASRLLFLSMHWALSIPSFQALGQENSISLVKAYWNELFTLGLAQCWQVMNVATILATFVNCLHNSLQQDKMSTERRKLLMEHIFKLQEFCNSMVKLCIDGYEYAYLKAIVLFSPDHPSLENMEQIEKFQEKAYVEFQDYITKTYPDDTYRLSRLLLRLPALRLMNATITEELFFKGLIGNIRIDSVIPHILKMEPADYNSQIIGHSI
# [6] = target: T4, Hepatocyte nuclear factor 4-alpha (Homo sapiens) (UniProt P41235); assay: Selectivity interaction (Reporter gene assay) EUB0001147a HNF4A; design: recommended concentration 1 uM
# T4 sequence (whole entry): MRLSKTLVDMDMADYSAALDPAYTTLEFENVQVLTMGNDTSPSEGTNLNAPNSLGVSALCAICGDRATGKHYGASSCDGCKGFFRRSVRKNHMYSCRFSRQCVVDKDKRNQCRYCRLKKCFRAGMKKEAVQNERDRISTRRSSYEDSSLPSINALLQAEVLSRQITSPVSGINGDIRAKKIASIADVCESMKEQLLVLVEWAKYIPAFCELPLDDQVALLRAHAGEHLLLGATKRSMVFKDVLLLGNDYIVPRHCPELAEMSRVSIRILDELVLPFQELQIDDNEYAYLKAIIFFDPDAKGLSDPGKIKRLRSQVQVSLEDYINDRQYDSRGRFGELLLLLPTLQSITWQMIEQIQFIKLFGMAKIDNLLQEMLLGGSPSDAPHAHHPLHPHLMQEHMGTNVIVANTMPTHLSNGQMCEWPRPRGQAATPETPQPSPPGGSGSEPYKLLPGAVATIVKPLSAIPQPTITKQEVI
# [7] = target: Nuclear receptor subfamily 2 group E member 1 (Homo sapiens) (UniProt Q9Y466); assay: Selectivity interaction (Reporter gene assay) EUB0001147a NR2E1; design: recommended concentration 1 uM
# [8] = target: Nuclear receptor subfamily 2 group E member 1 (Homo sapiens) (UniProt Q9Y466); assay: Selectivity interaction (Reporter gene assay) EUB0001153a NR2E1; design: recommended concentration 10 uM
# [9] = target: T4, Hepatocyte nuclear factor 4-alpha (Homo sapiens); assay: Selectivity interaction (Reporter gene assay) EUB0001153a HNF4A; design: recommended concentration 10 uM
# [10] = target: T2, Retinoic acid receptor RXR-alpha (Homo sapiens); assay: Selectivity interaction (Reporter gene assay) EUB0001153a RXRA; design: recommended concentration 10 uM; conditions: reference bexarotene 1 uM, Selectivity number of off-targets 0.0, Selectivity number of targets 1.0, Source Knowledge inhouse
# [11] = target: T1, Alpha trans-inducing protein (Human alphaherpesvirus 1); assay: Selectivity interaction (Reporter gene assay) EUB0001153a UL48; design: recommended concentration 10 uM
# [12] = target: T3, Nuclear receptor subfamily 2 group C member 1 (Homo sapiens); assay: Selectivity interaction (Reporter gene assay) EUB0001153a NR2C1; design: recommended concentration 10 uM
# [13] = target: Steroidogenic factor 1 (Homo sapiens) (UniProt Q13285); assay: Selectivity interaction (Reporter gene assay) EUB0001153a NR5A1; design: recommended concentration 10 uM
# [14] = target: Nuclear receptor subfamily 4immunitygroup A member 1 (Homo sapiens) (UniProt P22736); assay: Selectivity interaction (Reporter gene assay) EUB0001153a NR4A1; design: recommended concentration 10 uM; conditions: screened at recom. conc., Selectivity number of off-targets 1.0, Selectivity number of targets 5.0, Source Knowledge inhouse
# [15] = target: Nuclear receptor subfamily 2 group E member 1 (Homo sapiens) (UniProt Q9Y466); assay: Selectivity interaction (Reporter gene assay) EUB0001150a NR2E1; design: recommended concentration 10 uM
# [16] = target: T1, Alpha trans-inducing protein (Human alphaherpesvirus 1); assay: Selectivity interaction (Reporter gene assay) EUB0001150a UL48; design: recommended concentration 10 uM
# [17] = target: T2, Retinoic acid receptor RXR-alpha (Homo sapiens); assay: Selectivity interaction (Reporter gene assay) EUB0001150a RXRA; design: recommended concentration 10 uM; conditions: reference bexarotene 1 uM, Selectivity number of off-targets 0.0, Selectivity number of targets 1.0, Source Knowledge inhouse
# [18] = target: T4, Hepatocyte nuclear factor 4-alpha (Homo sapiens); assay: Selectivity interaction (Reporter gene assay) EUB0001150a HNF4A; design: recommended concentration 10 uM
# [19] = target: Steroidogenic factor 1 (Homo sapiens) (UniProt Q13285); assay: Selectivity interaction (Reporter gene assay) EUB0001150a NR5A1; design: recommended concentration 10 uM
# [20] = target: Nuclear receptor subfamily 4immunitygroup A member 1 (Homo sapiens) (UniProt P22736); assay: Selectivity interaction (Reporter gene assay) EUB0001150a NR4A1; design: recommended concentration 10 uM
# [21] = target: T3, Nuclear receptor subfamily 2 group C member 1 (Homo sapiens); assay: Selectivity interaction (Reporter gene assay) EUB0001150a NR2C1; design: recommended concentration 10 uM
# [22] = target: T3, Nuclear receptor subfamily 2 group C member 1 (Homo sapiens); assay: Selectivity interaction (Reporter gene assay) EUB0001152a NR2C1; design: recommended concentration 10 uM; conditions: screened at recom. conc., Selectivity number of off-targets 1.0, Selectivity number of targets 5.0, Source Knowledge inhouse
# [23] = target: Steroidogenic factor 1 (Homo sapiens) (UniProt Q13285); assay: Selectivity interaction (Reporter gene assay) EUB0001152a NR5A1; design: recommended concentration 10 uM
# [24] = target: Nuclear receptor subfamily 4immunitygroup A member 1 (Homo sapiens) (UniProt P22736); assay: Selectivity interaction (Reporter gene assay) EUB0001152a NR4A1; design: recommended concentration 10 uM
# [25] = target: T1, Alpha trans-inducing protein (Human alphaherpesvirus 1); assay: Selectivity interaction (Reporter gene assay) EUB0001152a UL48; design: recommended concentration 10 uM
# [26] = target: T4, Hepatocyte nuclear factor 4-alpha (Homo sapiens); assay: Selectivity interaction (Reporter gene assay) EUB0001152a HNF4A; design: recommended concentration 10 uM
# [27] = target: T2, Retinoic acid receptor RXR-alpha (Homo sapiens); assay: Selectivity interaction (Reporter gene assay) EUB0001152a RXRA; design: recommended concentration 10 uM
# [28] = target: Nuclear receptor subfamily 2 group E member 1 (Homo sapiens) (UniProt Q9Y466); assay: Selectivity interaction (Reporter gene assay) EUB0001152a NR2E1; design: recommended concentration 10 uM
# [29] = target: Steroidogenic factor 1 (Homo sapiens) (UniProt Q13285); assay: Selectivity interaction (Reporter gene assay) EUB0001151a NR5A1; design: recommended concentration 1 uM
# [30] = target: T2, Retinoic acid receptor RXR-alpha (Homo sapiens); assay: Selectivity interaction (Reporter gene assay) EUB0001151a RXRA; design: recommended concentration 1 uM; conditions: reference bexarotene 1 uM, Selectivity number of off-targets 0.0, Selectivity number of targets 1.0, Source Knowledge inhouse
# [31] = target: T3, Nuclear receptor subfamily 2 group C member 1 (Homo sapiens); assay: Selectivity interaction (Reporter gene assay) EUB0001151a NR2C1; design: recommended concentration 1 uM
# [32] = target: Nuclear receptor subfamily 4immunitygroup A member 1 (Homo sapiens) (UniProt P22736); assay: Selectivity interaction (Reporter gene assay) EUB0001151a NR4A1; design: recommended concentration 1 uM
# [33] = target: Nuclear receptor subfamily 2 group E member 1 (Homo sapiens) (UniProt Q9Y466); assay: Selectivity interaction (Reporter gene assay) EUB0001151a NR2E1; design: recommended concentration 1 uM
# [34] = target: T1, Alpha trans-inducing protein (Human alphaherpesvirus 1); assay: Selectivity interaction (Reporter gene assay) EUB0001151a UL48; design: recommended concentration 1 uM
# [35] = target: T4, Hepatocyte nuclear factor 4-alpha (Homo sapiens); assay: Selectivity interaction (Reporter gene assay) EUB0001151a HNF4A; design: recommended concentration 1 uM
# [36] = target: T5, Peroxisome proliferator-activated receptor gamma (Homo sapiens) (UniProt P37231); assay: Selectivity interaction (Reporter gene assay) EUB0001151a PPARG; design: recommended concentration 1 uM; conditions: screened at recom. conc., Selectivity number of off-targets 1.0, Selectivity number of targets 19.0, Source Knowledge inhouse
# T5 sequence (whole entry): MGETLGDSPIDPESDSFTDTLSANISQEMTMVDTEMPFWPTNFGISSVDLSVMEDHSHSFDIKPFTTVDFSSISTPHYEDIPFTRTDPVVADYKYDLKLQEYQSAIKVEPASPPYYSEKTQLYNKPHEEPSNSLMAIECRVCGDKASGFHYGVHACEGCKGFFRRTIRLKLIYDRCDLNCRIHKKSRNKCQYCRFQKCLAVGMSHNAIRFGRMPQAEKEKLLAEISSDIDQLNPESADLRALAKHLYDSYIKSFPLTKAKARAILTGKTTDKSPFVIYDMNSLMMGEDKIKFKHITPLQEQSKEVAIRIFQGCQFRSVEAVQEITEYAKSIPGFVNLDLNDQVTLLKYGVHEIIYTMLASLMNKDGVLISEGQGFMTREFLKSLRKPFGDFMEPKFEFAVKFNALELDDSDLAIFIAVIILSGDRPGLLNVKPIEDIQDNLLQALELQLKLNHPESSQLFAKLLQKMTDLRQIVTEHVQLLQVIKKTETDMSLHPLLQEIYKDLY
# Sequence of Nuclear receptor subfamily 4immunitygroup A member 1 (Homo sapiens) (P22736 whole entry): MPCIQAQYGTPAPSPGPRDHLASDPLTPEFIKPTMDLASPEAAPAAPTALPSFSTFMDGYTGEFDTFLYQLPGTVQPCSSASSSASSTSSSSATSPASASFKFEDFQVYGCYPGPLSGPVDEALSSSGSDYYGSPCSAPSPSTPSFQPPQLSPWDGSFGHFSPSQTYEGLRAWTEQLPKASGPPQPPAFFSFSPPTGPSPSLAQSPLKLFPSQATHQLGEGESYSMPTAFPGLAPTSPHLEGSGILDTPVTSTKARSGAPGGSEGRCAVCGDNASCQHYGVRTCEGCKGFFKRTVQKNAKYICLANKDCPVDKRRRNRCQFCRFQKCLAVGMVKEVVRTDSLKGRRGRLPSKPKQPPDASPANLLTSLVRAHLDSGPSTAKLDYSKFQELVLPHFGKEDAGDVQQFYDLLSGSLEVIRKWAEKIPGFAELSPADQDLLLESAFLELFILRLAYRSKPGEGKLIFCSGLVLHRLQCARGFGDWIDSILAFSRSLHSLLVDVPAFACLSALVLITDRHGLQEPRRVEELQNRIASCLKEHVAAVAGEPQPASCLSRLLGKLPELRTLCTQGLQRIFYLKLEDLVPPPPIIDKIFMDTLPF
# T1 sequence (A0A5J6DW59 as listed by the source): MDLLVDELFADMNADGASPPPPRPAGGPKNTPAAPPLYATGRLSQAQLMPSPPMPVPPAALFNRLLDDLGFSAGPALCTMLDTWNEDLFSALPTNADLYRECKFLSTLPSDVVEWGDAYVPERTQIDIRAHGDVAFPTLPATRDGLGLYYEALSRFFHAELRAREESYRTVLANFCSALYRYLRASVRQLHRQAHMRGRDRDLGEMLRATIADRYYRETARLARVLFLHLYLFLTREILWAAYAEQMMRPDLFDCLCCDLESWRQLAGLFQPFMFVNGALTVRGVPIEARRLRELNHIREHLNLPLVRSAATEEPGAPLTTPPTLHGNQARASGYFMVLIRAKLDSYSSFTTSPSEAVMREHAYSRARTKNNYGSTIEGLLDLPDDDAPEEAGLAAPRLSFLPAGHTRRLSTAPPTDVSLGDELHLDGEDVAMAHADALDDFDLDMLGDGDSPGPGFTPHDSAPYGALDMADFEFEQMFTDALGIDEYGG
# Sequence of Steroidogenic factor 1 (Homo sapiens) (Q13285 whole entry): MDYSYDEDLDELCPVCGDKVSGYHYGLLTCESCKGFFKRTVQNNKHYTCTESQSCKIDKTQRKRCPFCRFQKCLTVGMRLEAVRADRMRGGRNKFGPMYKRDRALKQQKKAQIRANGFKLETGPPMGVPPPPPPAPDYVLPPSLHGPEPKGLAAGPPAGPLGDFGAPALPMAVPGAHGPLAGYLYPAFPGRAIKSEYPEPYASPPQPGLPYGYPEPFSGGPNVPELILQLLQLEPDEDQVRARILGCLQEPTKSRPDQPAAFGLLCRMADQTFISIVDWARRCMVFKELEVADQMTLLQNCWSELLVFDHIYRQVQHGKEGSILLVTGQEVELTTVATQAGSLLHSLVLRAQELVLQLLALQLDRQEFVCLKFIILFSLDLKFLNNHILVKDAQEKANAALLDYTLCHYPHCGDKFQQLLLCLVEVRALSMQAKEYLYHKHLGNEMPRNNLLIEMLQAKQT
# Sequence of Nuclear receptor subfamily 2 group E member 1 (Homo sapiens) (Q9Y466 whole entry): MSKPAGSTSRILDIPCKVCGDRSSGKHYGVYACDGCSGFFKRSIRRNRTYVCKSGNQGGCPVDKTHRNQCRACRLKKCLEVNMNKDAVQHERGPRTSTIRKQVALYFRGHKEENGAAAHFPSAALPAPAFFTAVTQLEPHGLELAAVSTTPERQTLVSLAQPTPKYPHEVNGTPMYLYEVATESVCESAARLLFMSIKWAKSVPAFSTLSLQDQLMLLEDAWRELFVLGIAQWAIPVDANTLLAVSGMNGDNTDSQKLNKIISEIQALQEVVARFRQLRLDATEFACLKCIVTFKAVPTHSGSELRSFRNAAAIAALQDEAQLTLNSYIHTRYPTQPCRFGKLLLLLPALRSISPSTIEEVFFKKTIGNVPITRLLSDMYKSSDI
compound,measurement,setting,value
CSc1ccc(C(=O)/C=C/c2cc(C)c(OC(C)(C)C(=O)O)c(C)c2)cc1,P-value,[1],6.06e-07
same,Relative activation,[2],0.86%
same,Remaining activity,[3],0.871
same,Fold activation,[4],1.25
same,Fold activation,[5],1.41
same,Remaining activity,[6],0.852
same,Fold activation,[7],1.11
CCOC(=O)C1Cc2ccccc2CN1C(=O)c1ccc(SC)s1 (stereo unspecified),Fold activation,[8],1.33
same,Remaining activity,[9],0.77
same,Relative activation,[10],0.245%
same,P-value,[11],0.0358
same,Fold activation,[12],1.13
same,Fold activation,[13],1.11
same,Fold activation,[14],2.05
COC(=O)c1sccc1S(=O)(=O)Nc1ccc(Nc2ccccc2)cc1OC,Remaining activity,[15],0.608
same,P-value,[16],0.0012
same,Relative activation,[17],0.476%
same,Remaining activity,[18],0.51
same,Remaining activity,[19],0.63
same,Remaining activity,[20],0.906
same,Remaining activity,[21],0.679
CCOC(=O)N1CCC(CN(Cc2ccc(Cl)cc2)Cc2ccc([N+](=O)[O-])s2)C1 (stereo unspecified),Remaining activity,[22],0.46
same,Remaining activity,[23],0.905
same,Fold activation,[24],1.3
same,P-value,[25],0.0179
same,Remaining activity,[26],0.579
same,Relative activation,[27],0.237%
same,Remaining activity,[28],0.62
O=C(NCCS(=O)(=O)c1ccc(C(F)(F)F)cn1)c1ccc(Cl)cc1,Remaining activity,[29],0.9
same,Relative activation,[30],0.596%
same,Fold activation,[31],1.39
same,Fold activation,[32],1.27
same,Fold activation,[33],1.11
same,P-value,[34],0.0023
same,Fold activation,[35],1.25
same,Remaining activity,[36],0.832
